Results as given in patent publication US20200341000A1, “METHOD OF SCREENING COMPOUNDS FOR TREATING CNS DISORDERS” (SAGE THERAPEUTICS, INC., priority 2017, published 2020).
“Also recorded” adds a separate entry of the source. Marks after values point to notes of the source that are not given here.

Columns and labels:
[1] = system: tonic current in dentate gyms granule cells (DGGCs); conditions: Abramian et al., 2010, 2014; cited from earlier work
[2] = system: sIPSCs in dentate gyms granule cells (DGGCs); assay: Acute (allosteric) modulation of sIPSCs in DGGCs of hippocampal slices; assay type: cell-based, mice
Protocol: (§1) Brain slices were prepared from 3- to 5-week-old male C57 mice. Mice were anesthetized with isoflurane, decapitated, and brains were rapidly removed and submerged in ice-cold cutting solution containing (mM): 126 NaCl, 2.5 KCl, 0.5 CaCl2, 2 MgCl2, 26 NaHCO3, 1.25 NaH2PO4, 10 glucose, 1.5 sodium pyruvate, and 3 kynurenic acid. Coronal 310 μm thick slices were cut with the vibratome VT1000S (Leica Microsystems, St Louis, Mo., USA). The slices were then transferred into incubation chamber filled with prewarmed (31-32° C.) oxygenated artificial cerebro-spinal fluid (ACSF) of the following composition (in mM): 126 NaCl, 2.5 KCl, 2 CaCl2, 2 MgCl2, 26 NaHCO3, 1.25 NaH2PO4, 10 glucose, 1.5 sodium pyruvate, 1 glutamine, 3 kynurenic acid and 0.005 GABA bubbled with 95% O2-5% CO2. Slices were allowed to recover at 32° C. for at least 1 hr before recording. Exogenous GABA was added in an attempt to standardize ambient GABA in the slice and provide an agonist source for newly inserted extrasynaptic GABAARs.
(§2) After recovery, a single slice was transferred to a submerged, dual perfusion recording chamber (Warner Instruments, Hamden, Conn., USA) on the stage of an upright microscope (Nikon FN-1) with a 40× water immersion objective equipped with DIC/IR optics. Slices were maintained at 32° C. and gravity-superfused with ACSF solution throughout experimentation and perfused at rate of 2 ml/min with oxygenated (O2/CO2 95/5%) ACSF.
(§3) Whole-cell currents were recorded from the dentate gyms granule cells (DGGCs) in 310-μm-thick coronal hippocampal slices. Patch pipettes (5-7MΩ) were pulled from borosilicate glass (World Precision Instruments) and filled with intracellular solution of the composition (in mM) as follows: 140 CsCl, 1 MgCl2, 0.1 EGTA, 10 HEPES, 2 Mg-ATP, 4 NaCl and 0.3 Na-GTP (pH=7.2 with CsOH). A 5 min period for stabilization after obtaining the whole-cell recording conformation (holding potential of −60 mV) was allowed before currents were recorded using an Axopatch 200B amplifier (Molecular Devices), low-pass filtered at 2 kHz, digitized at 20 kHz (Digidata 1440A; Molecular Devices), and stored for offline analysis.
(§4) For tonic current measurements, an all-points histogram was plotted for a 10 s period before and during 100 μM picrotoxin application, once the response reached a plateau level. Recordings with unstable baselines were discarded. Fitting the histogram with a Gaussian distribution gave the mean baseline current amplitude and the difference between the amplitudes before and during picrotoxin was considered to be the tonic current. The negative section of the all-points histogram which corresponds to the inward IPSCs was not fitted with a Gaussian distribution (Kretschmannova et al., 2013; Nusser and Mody, 2002). Series resistance and whole-cell capacitance were continually monitored and compensated throughout the course of the experiment. Recordings were eliminated from data analysis if series resistance increased by >20%. Spontaneous inhibitory post-synaptic currents (sIPSCs) were analyzed using the mini-analysis software (version 5.6.4; Synaptosoft, Decatur, Ga.). Minimum threshold detection was set to 3 times the value of baseline noise signal. To assess sIPSC kinetics, the recording trace was visually inspected and only events with a stable baseline, sharp rising phase, and single peak were used to negate artifacts due to event summation. Only recordings with a minimum of 200 events fitting these criteria were analyzed. sIPSCs amplitude, and frequency from each experimental condition was pooled and expressed as mean±SEM. To measure sIPSC decay, 100 consecutive events were averaged and the decay was fitted to a double exponential and the weighted decay constant (tw) was determined. Statistical analysis was performed by using Student t-test (paired and unpaired where appropriate), where p<0.05 is considered significant.

[3] = system: GABA receptor trafficking; assay: GABA receptor trafficking measured by GABAergic current density (FIG. 14); assay type: cell-based; conditions: measured by the GABAergic current density
Text: As shown in above examples, not all neurosteroids can modulate GABA receptor trafficking.

[4] = system: tonic current in dentate gyms granule cells (DGGCs); assay: Acute (allosteric) modulation of tonic current in DGGCs of hippocampal slices; assay type: cell-based, mice; conditions: 100 nM, 10 min acute exposure, then 100 μM picrotoxin; mean±SEM
Protocol: as §1, with “GABAARs. […]” for “GABAARs.”
Whole-cell currents were recorded from the dentate gyms granule cells (DGGCs) in 310-μm-thick coronal hippocampal slices. […] A 5 min period for stabilization after obtaining the whole-cell recording conformation (holding potential of −60 mV) was allowed before currents were recorded using an Axopatch 200B amplifier (Molecular Devices), low-pass filtered at 2 kHz, digitized at 20 kHz (Digidata 1440A; Molecular Devices), and stored for offline analysis.
For tonic current measurements, an all-points histogram was plotted for a 10 s period before and during 100 μM picrotoxin application, once the response reached a plateau level. […] Series resistance and whole-cell capacitance were continually monitored and compensated throughout the course of the experiment. […] Spontaneous inhibitory post-synaptic currents (sIPSCs) were analyzed using the mini-analysis software (version 5.6.4; Synaptosoft, Decatur, Ga.). […] Only recordings with a minimum of 200 events fitting these criteria were analyzed. sIPSCs amplitude, and frequency from each experimental condition was pooled and expressed as mean±SEM. […]

α1β2γ2 GABAA receptors = biological target: T1, α1β2γ2 GABAA receptors (Homo sapiens, UniProt P14867+P18507+P47870); assay: Whole-cell patch clamp, potentiation of GABA EC20 currents at recombinant synaptic-type receptors (LTK cells); assay type: cell-based; conditions: n = 3; for EC50: α1β2γ2, GABA EC20 (2 μM)
T1 construct: expressed in transfected cells
Protocol: (§5) Cellular electrophysiology was used to measure the pharmacological properties of ALLO, ganaxolone and SGE-516 in heterologous cell systems. Compounds were tested for their ability to affect GABA mediated currents at a submaximal agonist dose (GABA EC20=2 μM).
(§6) LTK cells were stably transfected with the α1β2γ2 subunits of the GABA receptor and CHO cells are transiently transfected with the α4β3γ subunits via the Lipofecatamine method. Cells were passaged at a confluence of about 50-80% and then seeded onto 35 mm sterile culture dishes containing 2 ml culture complete medium without antibiotics or antimycotics. Cells were cultivated at a density that enabled the recording of single cells without visible connections to other cells.
(§7) Whole-cell currents were measured with HEKA EPC-10 amplifiers using PatchMaster software. Bath solution for all experiments contained (in mM): NaCl 137, KCl 4, CaCl2 1.8, MgCl2 1, HEPES 10, D-Glucose 10, pH 7.4 with NaOH. Intracellular (pipette) solution contained (in mM): KCl 130, MgCl2 1, Mg-ATP 5, HEPES 10, EGTA 5, pH 7.2 with KOH. During experiments, cells and solutions were maintained at room temperature (19° C.-30° C.). For manual patchclamp recordings, cell culture dishes were placed on the dish holder of the microscope and continuously perfused (1 ml/min) with bath solution. After formation of a Gigaohm seal between the patch electrode and the cell (pipette resistance range: 2.5 MΩ-6.0MΩ; seal resistance range: >1 GΩ) the cell membrane across the pipette tip was ruptured to assure electrical access to the cell interior (whole-cell patch configuration).
(§8) Cells were voltage-clamped at a holding potential of −80 mV. GABAA receptors were activated by 2 μM GABA and compounds were sequentially applied at increasing concentrations for 30 s prior to a 2 s application of GABA. GABA and compounds were applied to cells via the Dynaflow perfusion system (Cellectricon, Sweden). Test compounds were dissolved in DMSO to form 10 mM stock solution and serially diluted to 0.01, 0.1, 1, and 10 μM in bath solution. […] All concentrations of test compound were tested on each cell. The relative percentage potentiation was defined as the peak amplitude in response to GABA EC20 in the presence of test compound divided by the peak amplitude in response to GABA EC20 alone, multiplied by 100.
(§9) ALLO and ganaxolone are known PAMs of both synaptic and extrasynaptic GABAAR-mediated currents. […] The α1β2γ2 or α4β3δ subunit combinations were chosen as representatives of typical synaptic and extrasynaptic GABAA receptors respectively.

[5] = system: tonic current in dentate gyms granule cells (DGGCs); assay: Sustained (metabotropic) enhancement of tonic current in DGGCs after 15 min exposure and washout; assay type: cell-based, mice
Protocol: as §1, §2, §3, §4

α4β3δ GABAA receptors = biological target: T2, α4β3δ GABAA receptors (Homo sapiens, UniProt O14764+P28472+P48169); assay: Whole-cell patch clamp, potentiation of GABA EC20 currents at recombinant extrasynaptic-type receptors (CHO cells); assay type: cell-based
T2 construct: expressed in transfected cells; host or cells: CHO cells (transient transfection, Lipofectamine)
Protocol: as §5, §6, §7, §8, §9

[6] = system: GABAA receptor β3 subunit S408/9 phosphorylation; assay: Immunoblot of β3 S408/9 phosphorylation in hippocampal slices; assay type: cell-based, mice; conditions: 100 nM
Protocol: Hippocampi were dissected out of acute slices from 8 to 12 week old C57/B16 mice and lysed with phosphate buffer including: 20 mM Tris-HCl, 150 mM NaCl, 5 mM EDTA, 10 mM NaF, 2 mM Na3VO4, 10 mM pyrophosphate, 0.1% SDS and 1% Triton after drug treatment. The β3 subunit was isolated using immunoprecipitation with β3 antibodies, after correction for protein content and the specific activity of labeling. Results were attained by SDS/PAGE followed by autoradiography (Abramian et al., 2010). For biotinylation experiments hippocampi were dissected out of acute slices from 8 to 12 week old C57/B16 mice and incubated in artificial cerebrospinal fluid (ACSF) described above at 30° C. for 1 h for recovery before experimentation. Slices were then placed on ice and incubated for 30 min with 1 mg/mL NHS-SS-biotin (Pierce). Excess biotin was removed by a 50 mM glycine quenching buffer, followed by washing of slices three times in ice-cold ACSF. The tissue was snap frozen on dry ice for 5 min, thawed at 4° C. and lysed. The lysates were solubilized with 2% Triton at 4° C. on a rotating wheel for 1 h. The insoluble material was removed by centrifugation, and 350-500 μg of protein lysate were incubated with NeutrAvidin beads (Pierce) for 18-24 h at 4° C. Bound material was eluted with sample buffer and subjected to SDS/PAGE and then immunoblotted with the indicated antibodies. Blots were then quantified using the CCD-based ChemiDoc XRS ? system. Antibodies against the β3 subunit and the phospho-β3 antibody were generated and verified by the laboratory of S.J.M. (Vien et al., 2015).
To produce antibodies specific for phosphorylated S443, rabbits were injected with a synthetic peptide corresponding to residues […] of the murine α4 subunit in which the serine residue corresponding to S443 was chemically phosphorylated; […]. Hippocampal slices were treated with vehicle (Con), or SGE-516 for 20 min. Slices were immunoblotted with pS408/9, β3, or actin antibodies. The ratio of pS408/9/β3 immunoreactivity was then normalized to control slices (100%=the line).
Hippocampal slices were treated with 100 nM ALLO or P4 (progesterone), and S408/9 phosphorylation was then determined as detailed above, n=4 slices (FIG. 18D). Hippocampal slices were treated with 100 nM ORG (FIG. 18E). S408/9 phosphorylation was examined using immunoblotting.

[7] = system: GT1-7 cells (co-express mPRα and GABAARs), β3 S408/9 phosphorylation; assay: Immunoblot of β3 S408/9 phosphorylation in GT1-7 cells; assay type: cell-based; conditions: 100 nM, 15 min; n=6
Protocol: GT1-7 cells that co-express mPRα and GABAARs were used to measure the level of phosphorylation at S408/9 position of β3 subunit. Quantitative PCR analysis indicated the enrichment of the mPRα mRNA in GT1-7 cells (FIG. 15A upper, figure taken from Thomas and Pang 2012). Expression of mPRα was confirmed using western blotting. 10 and 15 μg of SDS-soluble extracts from GT1-7 cells were immunoblotted with an mPRα specific antibody (FIG. 15A lower).
GT1-7 cells were treated with 100 nM AllO or P4 for 15 min and immunoblotted with antibodies specifically recognizing β3, actin, and […] β3 subunit (pS408/9). The ratio of pS408/9 β3 subunit immunoreactivity were then normalized to levels seen in vehicle treated to controls, n=6.

[8] = 100 nM acute exposure, n = 5 to 7 neurons

T2 sequence (P48169 36-554): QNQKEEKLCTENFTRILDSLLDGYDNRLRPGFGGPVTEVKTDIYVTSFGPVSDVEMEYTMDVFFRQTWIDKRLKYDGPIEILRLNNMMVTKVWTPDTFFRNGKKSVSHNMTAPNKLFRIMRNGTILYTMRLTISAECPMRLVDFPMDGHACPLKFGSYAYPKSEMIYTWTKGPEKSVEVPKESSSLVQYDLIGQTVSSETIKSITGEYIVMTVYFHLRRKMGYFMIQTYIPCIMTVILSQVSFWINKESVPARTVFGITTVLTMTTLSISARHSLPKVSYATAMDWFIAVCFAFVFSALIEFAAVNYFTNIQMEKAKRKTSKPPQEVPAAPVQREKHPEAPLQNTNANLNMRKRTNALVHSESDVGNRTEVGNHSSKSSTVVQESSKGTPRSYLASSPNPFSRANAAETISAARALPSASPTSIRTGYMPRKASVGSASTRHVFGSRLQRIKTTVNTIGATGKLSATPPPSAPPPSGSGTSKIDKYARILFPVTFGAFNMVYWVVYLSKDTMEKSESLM
T2 sequence (P28472 26-473): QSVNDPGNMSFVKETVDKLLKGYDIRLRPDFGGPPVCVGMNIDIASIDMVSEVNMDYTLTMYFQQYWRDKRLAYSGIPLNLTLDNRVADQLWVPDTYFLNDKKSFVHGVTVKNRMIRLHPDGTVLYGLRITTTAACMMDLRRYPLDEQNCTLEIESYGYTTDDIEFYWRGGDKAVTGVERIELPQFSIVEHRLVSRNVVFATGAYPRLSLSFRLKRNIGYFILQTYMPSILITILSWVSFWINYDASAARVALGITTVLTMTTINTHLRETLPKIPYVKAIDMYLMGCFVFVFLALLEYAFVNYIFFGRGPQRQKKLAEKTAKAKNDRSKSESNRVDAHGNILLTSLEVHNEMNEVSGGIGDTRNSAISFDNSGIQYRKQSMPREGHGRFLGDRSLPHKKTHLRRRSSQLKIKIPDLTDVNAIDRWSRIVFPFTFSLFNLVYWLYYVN
T2 sequence (O14764 25-452): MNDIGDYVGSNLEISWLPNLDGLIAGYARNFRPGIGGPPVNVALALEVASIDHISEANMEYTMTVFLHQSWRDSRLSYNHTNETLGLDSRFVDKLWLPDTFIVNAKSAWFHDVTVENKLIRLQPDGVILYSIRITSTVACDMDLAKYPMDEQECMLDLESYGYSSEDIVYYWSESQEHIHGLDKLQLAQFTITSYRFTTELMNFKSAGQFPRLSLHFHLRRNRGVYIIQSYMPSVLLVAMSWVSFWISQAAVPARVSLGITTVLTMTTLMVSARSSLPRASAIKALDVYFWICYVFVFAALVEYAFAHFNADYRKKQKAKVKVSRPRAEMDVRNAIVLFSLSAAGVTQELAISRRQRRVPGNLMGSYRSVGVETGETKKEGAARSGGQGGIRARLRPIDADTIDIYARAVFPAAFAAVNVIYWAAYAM
T1 sequence (P14867 28-456): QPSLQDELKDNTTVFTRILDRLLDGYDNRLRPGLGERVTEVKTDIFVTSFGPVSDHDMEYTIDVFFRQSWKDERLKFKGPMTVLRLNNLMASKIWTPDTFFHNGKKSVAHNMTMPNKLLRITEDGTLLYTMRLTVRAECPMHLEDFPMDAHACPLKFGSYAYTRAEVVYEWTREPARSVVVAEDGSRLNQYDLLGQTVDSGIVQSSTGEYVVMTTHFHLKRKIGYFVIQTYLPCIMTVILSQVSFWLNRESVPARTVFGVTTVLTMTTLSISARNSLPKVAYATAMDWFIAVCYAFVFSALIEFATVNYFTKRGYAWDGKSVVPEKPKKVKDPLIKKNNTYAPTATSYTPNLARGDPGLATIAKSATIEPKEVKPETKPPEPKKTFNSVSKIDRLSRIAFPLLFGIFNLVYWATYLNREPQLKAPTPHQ
T1 sequence (P47870 25-512 limits assumed): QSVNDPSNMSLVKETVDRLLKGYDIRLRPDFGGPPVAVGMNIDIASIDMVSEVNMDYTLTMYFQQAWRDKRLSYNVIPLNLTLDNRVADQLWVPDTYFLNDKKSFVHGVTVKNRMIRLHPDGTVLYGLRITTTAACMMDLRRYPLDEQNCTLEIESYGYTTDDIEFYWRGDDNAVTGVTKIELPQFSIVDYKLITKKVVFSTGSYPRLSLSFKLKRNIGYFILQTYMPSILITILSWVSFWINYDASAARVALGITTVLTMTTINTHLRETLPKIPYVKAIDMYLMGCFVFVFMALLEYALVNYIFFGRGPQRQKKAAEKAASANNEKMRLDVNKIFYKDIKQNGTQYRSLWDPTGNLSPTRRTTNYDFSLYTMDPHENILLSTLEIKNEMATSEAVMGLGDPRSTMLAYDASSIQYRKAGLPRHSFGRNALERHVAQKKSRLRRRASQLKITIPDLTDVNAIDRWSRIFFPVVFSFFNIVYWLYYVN
T1 sequence (P18507 40-475): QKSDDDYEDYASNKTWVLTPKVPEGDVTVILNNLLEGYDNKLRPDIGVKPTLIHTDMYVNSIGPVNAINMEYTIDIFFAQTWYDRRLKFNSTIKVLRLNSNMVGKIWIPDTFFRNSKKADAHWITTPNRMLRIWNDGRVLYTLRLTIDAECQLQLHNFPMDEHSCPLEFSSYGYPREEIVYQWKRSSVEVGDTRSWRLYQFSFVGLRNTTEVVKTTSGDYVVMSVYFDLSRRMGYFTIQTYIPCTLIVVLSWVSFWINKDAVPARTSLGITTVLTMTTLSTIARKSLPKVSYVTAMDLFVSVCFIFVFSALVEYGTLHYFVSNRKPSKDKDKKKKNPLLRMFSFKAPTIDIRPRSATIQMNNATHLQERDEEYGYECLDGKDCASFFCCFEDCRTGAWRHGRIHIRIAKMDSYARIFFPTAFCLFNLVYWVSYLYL

SMILES: C[C@]12CC[C@@H](O)C[C@H]1CC[C@@H]1[C@@H]2CC[C@]2(C)[C@@H](C(=O)CO)CC[C@@H]12 [THDOC, Tetrahydrodeoxy- corticosterone]
- sustained effects on GABAergic tonic current [1]: long lasting increase

SMILES: CC(=O)[C@H]1CC[C@H]2[C@@H]3CC[C@H]4C[C@](C)(O)CC[C@]4(C)[C@H]3CC[C@]12C [Ganaxolone]
- mean sIPSC amplitude before versus during exposure ([2]; 100 nM): no significant difference
- mean sIPSC decay time in the presence of compound ([2]; 100 nM): significantly increased
- sIPSC Amplitude [2, 8]: 55.1 ± 0.7 pA
- sIPSC Decay [2, 8]: 23.6 ± 2.9^c ms
- sIPSC Frequency [2, 8]: 5.6 ± 1.7 Hz
- modulation of GABA receptor trafficking [3]: did not modulate GABA receptor trafficking
- tonic current during acute exposure [4]: 78.8±23.2 pA
- EC50 (α1β2γ2 GABAA receptors; EC50, potentiation of GABA current): 256 nM
- EC50 (α1β2γ2 GABAA receptors; pEC50 ± S.E.M.): 158 nM
- Emax ± S.E.M., α1β2γ2 (α1β2γ2 GABAA receptors; relative percentage potentiation of GABA EC20 peak current): 400 ± 27%
- tonic current after exposure and washout ([5]; 1 μM, 15 min incubation, 30-60 min wash, vehicle 43.9±5.7 pA): 57.4±6.3 pA
- change of tonic current versus vehicle ([5]; 1 μM, 15 min incubation, wash): did not significantly alter; also recorded: No significant change
- EC50 (α4β3δ GABAA receptors): 94 nM
- Emax (α4β3δ GABAA receptors; CHO, relative percentage potentiation of GABA EC20 peak current, n = 3, read-out: Emax ± S.E.M., α4β3δ): 225%
- Emax ± S.E.M., α4β3δ (α4β3δ GABAA receptors; relative percentage potentiation of GABA EC20 peak current, n = 3): 225 ± 8%

SMILES: C[C@@]1(O)CC[C@H]2[C@H](CC[C@@H]3[C@@H]2CC[C@]2(C)[C@@H](C(=O)Cn4cc(C#N)cn4)CC[C@@H]32)C1 [SAGE-217]
- modulation of GABA receptor trafficking [3]: modulated GABA receptor trafficking

SMILES: CN1C(=O)CN=C(c2ccccc2)c2cc(Cl)ccc21 [diazepam]
- Emax (α1β2γ2 GABAA receptors; LTK, relative percentage potentiation of GABA EC20 peak current, read-out: Emax ± S.E.M., α1β2γ2): 184%
- effect on GABA evoked currents in α4β3δ receptors (α4β3δ GABAA receptors; data not shown): did not alter

SMILES: CC(=O)[C@H]1CC[C@H]2[C@@H]3CCC4=CC(=O)CC[C@]4(C)[C@H]3CC[C@]12C [P4, Progesterone]
- S408/9 phosphorylation in hippocampal slices [6]: regulated
- S408/9 phosphorylation (pS408/9/β3) in GT1-7 cells [7]: increase
- amplitude and density of GABAergic tonic current at varying doses ([5]; protocol as in FIG. 3, n=6-8 cells): dosage-dependent effect; also recorded: dosage dependent effect
